Results as given in patent publication US20160000750A1, “COMBINATION OF EGCG OR METHYLATED EGCG AND A PDE INHIBITOR” (KYUSHU UNIVERSITY, NATIONAL UNIVERSITY CORPORATION, priority 2010, published 2016).

What was measured:
[1] = tested on: human prostate cancer cell line, PC3; assay: Trypan blue cell viability and viable cell count, PC3; type: cell-based; settings: vardenafil 5 μM, EGCG 10 μM added after 2 hours, 96 hours
Experimental: A human prostate cancer cell line, PC3, was subcultured in an RPMI 1640 medium supplemented with 10% fetal calf serum (FCS) at 37° C. under vapor-saturated 5% CO2 conditions. The cells were cultured in the logarithmic growth phase. The RPMI 1640 medium used in the culture was prepared by suspending 10.4 g of an RPMI 1640 medium, 2.38 g of HEPES, 0.5 vial of Penicillin G Potassium for Injection 200000 Unit, 0.1 vial of Streptomycin Sulfate for Injection 1 g, and 2.0 g of NaHCO3 in 1 L of ultrapure water, followed by filter sterilization. Subsequently, the RPMI 1640 medium was supplemented with fetal calf serum (FCS) and was used in cell culture. A trypan blue staining solution was prepared by suspending trypan blue in PBS at a concentration of 1% and was used in investigation of the anti-cancer activity of a combination of EGCG and vardenafil by trypan blue assay. The PBS used was prepared by dissolving 8.0 g of NaCl, 0.2 g of KCl, 1.15 g of Na2HPO4, and 0.2 g of KH2PO4 in 1 L of ultrapure water, followed by autoclave sterilization. […] After 10 minutes, the number of the cells was counted with a hemocytometer. Unstained cells were deemed as viable cells, and the cell viability was determined as a ratio of the number of unstained cells in trypan blue staining to the total number of cells. […]

[2] = tested on: human acute myeloid leukemia cell line, HL60; assay: Involvement of 67LR (anti-67LR antibody MLuc5) in cell-killing and cytostatic activity, HL60; type: cell-based; settings: HL60, 96-well; vardenafil 5 μM, EGCG 5 μM; 96 hours; without anti-67LR antibody (isotype control mouse IgM)
Experimental: A trypan blue staining solution was prepared by suspending trypan blue in PBS at a concentration of 1% and was used in investigation of the anti-cancer activity of a combination of EGCG and vardenafil by trypan blue assay. The PBS used was prepared by dissolving 8.0 g of NaCl, 0.2 g of KCl, 1.15 g of Na2HPO4, and 0.2 g of KH2PO4 in 1 L of ultrapure water, followed by autoclave sterilization.
A human multiple myeloma cell line, U266, and a human acute myeloid leukemia cell line, HL60, adjusted to be 5×10^4 cells/mL (U266) and 1×10^4 cells/mL (HL60), respectively, in an RPMI 1640 medium supplemented with 1% FCS were seeded in a 96-well plate (Falcon Co., Ltd.). Vardenafil was added thereto at a final concentration of 5 μM. Immediately after the addition, an anti-67LR monoclonal antibody, MLuc5 (Abcam PLC), was added thereto at a final concentration of 20 μg/mL. In the group of adding an isotype control antibody, mouse IgM (Cosmo Bio Co., Ltd., Tokyo) was added at a final concentration of 20 μg/mL. […]
The plate was returned to the incubator immediately after the addition of EGCG, followed by culturing for 96 hours. […] After 10 minutes, the number of the cells was counted with a hemocytometer. Unstained cells were deemed as viable cells, and the cell viability was determined as a ratio of the number of unstained cells in trypan blue staining to the total number of cells. […]

## (−)-epigallocatechin-3-O-gallate [EGCG]
[1]
  cell viability (cell-killing activity): any cytotoxicity was not observed
[2]
  cell viability (cell-killing activity): any cytotoxicity was not observed
